Results taken from the NIST ThermoML archive (doi:10.1016/j.jct.2014.01.025).
Numbers after ± are expanded uncertainties.

Conditions: Liquid; for Critical pressure: Direct measurement; for Critical temperature: Visual observation in an unstirred cell

Critical pressure | Critical temperature | SMILES
6135 ± 31 kPa | 514.2 ± 2.4 K | CCO [ethanol]
2761 ± 31 kPa | 540 ± 2.4 K | CCCCCCC [heptane]
8128 ± 31 kPa | 512.3 ± 2.4 K | CO [methanol]
5172 ± 31 kPa | 537 ± 2.4 K | CCCO [propan-1-ol]
